Like-named read-outs stand apart in the source and are kept apart here.
Assays:
[1] = system: SR; test: NCI in-vitro testing, SR (Leukemia); assay type: cell-based; conditions: for GI50: Homo sapiens
[2] = system: CCRF-CEM; test: NCI in-vitro testing, CCRF-CEM (Leukemia); conditions: for GI50 / CC50: Homo sapiens; for CC50: read-out: LC50
[3] = system: SNB-75; test: NCI in-vitro testing, SNB-75 (CNS Cancer); conditions: for GI50 / CC50: Homo sapiens; for CC50: SNB-75, read-out: LC50
[4] = system: MALME-3M; test: NCI in-vitro testing, MALME-3M (Melanoma); conditions: for GI50 / CC50: Homo sapiens, Malme-3M; for CC50: read-out: LC50; for TGI / Percent Growth: MALME-3M
[5] = system: OVCAR-3; test: NCI in-vitro testing, OVCAR-3 (Ovarian Cancer); conditions: for GI50 / CC50: Homo sapiens; for CC50: OVCAR-3, read-out: LC50
[6] = system: OVCAR-5; test: NCI in-vitro testing, OVCAR-5 (Ovarian Cancer); conditions: for GI50 / CC50: Homo sapiens; for CC50: OVCAR-5, read-out: LC50
[7] = system: DU-145; test: NCI in-vitro testing, DU-145 (Prostate Cancer); conditions: for GI50 / CC50: Homo sapiens; for CC50: DU-145, read-out: LC50
[8] = system: NCI-H460; test: NCI in-vitro testing, NCI-H460 (Non-Small Cell Lung Cancer); conditions: for GI50 / CC50: Homo sapiens; for CC50: NCI-H460, read-out: LC50
[9] = In vivo toxicity assay in tumor-bearing nude mice; conditions: for serum ALT, AST, and creatinine levels: 2 days after the last treatment; for histopathologic examination of organs: lung, heart, stomach, small intestine, liver, spleen, pancreas, kidney; for blood cell counts: red blood cells, white blood cells, platelets; for body weights: vs solvent
[10] = system: Akt; test: Western blot analysis of Akt; assay type: cell-based, human; conditions: 1 μM, 12 h
Procedure: (§1) Ras Signaling Pathway and Molecular Mechanisms of Oncrasin-induced apoptosis. To investigate molecular mechanisms of apoptosis induction by Oncrasin compounds, levels several proteins that are involved in apoptosis and/or involved in Ras signaling pathways were determined, including Bax, Bik, Bc12, Bcl-XL, Raf-1, B-Raf, Akt, Mst1 and atypical protein kinase C (aPKC) zeta and PKCiota. To study which molecules are affected by Oncrasin treatment, T29, T29Kt1 and H460 cells were treated with Oncrasin-1 at an optimal concentration, around IC60 to IC80 for T29Kt1 and H460 cells. Cell lysates were collected 12 h after the treatment and subjected to Western blot analysis.

[11] = system: Bax, Bik, Bcl-2, Bcl-XL, Mst1, B-Raf, PKCzeta and PKCiota; test: Western blot analysis of apoptosis/Ras signaling proteins; assay type: cell-based, human; conditions: T29, T29Kt1 and H460 cells, 12 h
Procedure: as §1

[12] = system: PKCiota knockdown T29Kt1 cells; test: Cell viability in stable PKCiota knockdown T29Kt1 cells; assay type: cell-based, human
Procedure: Knockdown of PKCiota suppressed Oncrasin-mediated apoptosis and cytotoxicity. To investigate possible role of PCKiota in Oncrasin-1 mediated cytotoxicity, PKCiota was knocked down in H460 cells by using oligo ribonucleotides. H460 cells were treated with 200 pM PKCiota siRNA for 24 h, and then with DMSO or 1 μM Oncrasin for another 12 h. After that, cells harvested for analysis of apoptosis by fluorescence-activated cell sorting (FACS) and for expression of PKCiota by Western blot analysis. […] To further study the effect of atypical PKC in Oncrasin-induced cytotoxicity, the inventors obtained plasmids encoding PKCiota and PKCzeta siRNA from Origene Corporation and made stable PKCiota and PKCzeta knockdown T29Kt1 cells. […] The IC50 in PKCiota knockdown T29Kt1 cells were 100 fold higher than parental T29K cells. […] Thus, compounds with synthetic lethality for PKCiota might be useful for treatment of those cancers.

[13] = read-out: Log10 GI50 (converted)
[14] = SNB-75, Log10 Concentration −4.0 Molar
[15] = SNB-75, Log10 Concentration −5.0 Molar
[16] = SNB-75, Log10 Concentration −6.0 Molar
[17] = SNB-75, Log10 Concentration −7.0 Molar
[18] = SNB-75, Log10 Concentration −8.0 Molar
[19] = OVCAR-3, Log10 Concentration −4.0 Molar
[20] = OVCAR-3, Log10 Concentration −5.0 Molar
[21] = OVCAR-3, Log10 Concentration −6.0 Molar
[22] = OVCAR-3, Log10 Concentration −7.0 Molar
[23] = OVCAR-3, Log10 Concentration −8.0 Molar
[24] = OVCAR-5, Log10 Concentration −4.0 Molar
[25] = OVCAR-5, Log10 Concentration −5.0 Molar
[26] = OVCAR-5, Log10 Concentration −6.0 Molar
[27] = OVCAR-5, Log10 Concentration −7.0 Molar
[28] = OVCAR-5, Log10 Concentration −8.0 Molar
[29] = DU-145, Log10 Concentration −4.0 Molar
[30] = DU-145, Log10 Concentration −5.0 Molar
[31] = DU-145, Log10 Concentration −6.0 Molar
[32] = DU-145, Log10 Concentration −7.0 Molar
[33] = DU-145, Log10 Concentration −8.0 Molar

OCc1cn(Cc2ccc(Cl)cc2)c2ccccc12 [Oncrasin K060, 1H-Indole-3-methanol, 1-[(4-chlorophenyl)methyl]-]
TGI [1]: 1.26E−8 Molar
GI50 ([1]; Leukemia, NCI Mean Graphs, read-out: Log10 GI50 (converted)): < 0.01 µM
GI50 ([1]; read-out: GI50): < 1 µM
Percent Growth ([1]; Log10 Concentration −4.0 Molar): −71%
Percent Growth ([1]; Log10 Concentration −5.0 Molar): −18%
Percent Growth ([1]; Log10 Concentration −6.0 Molar): −71%
Percent Growth ([1]; Log10 Concentration −7.0 Molar): −26%
Percent Growth ([1]; Log10 Concentration −8.0 Molar): 43%
TGI [2]: 4.31E−6 Molar
GI50 [2]: 1.74 µM
CC50 [2]: 14.8 µM
GI50 [2, 13]: 1.74 µM
Percent Growth ([2]; Log10 Concentration −4.0 Molar): −67%
Percent Growth ([2]; Log10 Concentration −5.0 Molar): −47%
Percent Growth ([2]; Log10 Concentration −6.0 Molar): 81%
Percent Growth ([2]; Log10 Concentration −7.0 Molar): 97%
Percent Growth ([2]; Log10 Concentration −8.0 Molar): 100%
GI50 ([3]; SNB-75): 76.4 µM
CC50 [3]: 62.8 µM
GI50 ([3]; SNB-75, read-out: Log10 GI50 (converted)): 7.59 µM
TGI ([3]; SNB-75): 2.31E−5 Molar
Percent Growth [3, 14]: −73%
Percent Growth [3, 15]: 42%
Percent Growth [3, 16]: 112%
Percent Growth [3, 17]: 119%
Percent Growth [3, 18]: 118%
GI50 [4]: 51.7 µM
CC50 [4]: 82 µM
GI50 [4, 13]: 5.13 µM
TGI [4]: 2.37E−5 Molar
Percent Growth ([4]; Log10 Concentration −4.0 Molar): −58%
Percent Growth ([4]; Log10 Concentration −5.0 Molar): 35%
Percent Growth ([4]; Log10 Concentration −6.0 Molar): 88%
Percent Growth ([4]; Log10 Concentration −7.0 Molar): 114%
Percent Growth ([4]; Log10 Concentration −8.0 Molar): 105%
GI50 ([5]; OVCAR-3): 0.569 µM
CC50 [5]: 69.1 µM
GI50 ([5]; OVCAR-3, read-out: Log10 GI50 (converted)): 0.575 µM
TGI ([5]; OVCAR-3): 1.03E−5 Molar
Percent Growth [5, 19]: −60%
Percent Growth [5, 20]: 1%
Percent Growth [5, 21]: 42%
Percent Growth [5, 22]: 77%
Percent Growth [5, 23]: 95%
GI50 ([6]; OVCAR-5): < 0.01 µM
CC50 [6]: > 100 µM
GI50 ([6]; OVCAR-5, read-out: Log10 GI50 (converted)): < 0.01 µM
TGI ([6]; OVCAR-5): 3.72E−7 Molar
Percent Growth [6, 24]: −50%
Percent Growth [6, 25]: −23%
Percent Growth [6, 26]: −7%
Percent Growth [6, 27]: 10%
Percent Growth [6, 28]: 43%
TGI ([7]; DU-145): 2.78E−5 Molar
Percent Growth [7, 29]: −53%
Percent Growth [7, 30]: 42%
Percent Growth [7, 31]: 96%
Percent Growth [7, 32]: 105%
Percent Growth [7, 33]: 108%
GI50 ([7]; DU-145): 7.25 µM
CC50 [7]: 93.3 µM
GI50 ([7]; DU-145, read-out: Log10 GI50 (converted)): 7.24 µM
TGI [8]: 3.79E−5 Molar
GI50 ([8]; NCI-H460): 0.0888 µM
CC50 [8]: > 100 µM
GI50 ([8]; NCI-H460, read-out: Log10 GI50 (converted)): 0.0891 µM
Percent Growth ([8]; Log10 Concentration −4.0 Molar): −9%
Percent Growth ([8]; Log10 Concentration −5.0 Molar): 13%
Percent Growth ([8]; Log10 Concentration −6.0 Molar): 20%
Percent Growth ([8]; Log10 Concentration −7.0 Molar): 48%
Percent Growth ([8]; Log10 Concentration −8.0 Molar): 79%

O=Cc1cn(Cc2cccc(Cl)c2)c2ccccc12 [Oncrasin K027, 1-(3-chlorobenzyl)-1H-indole-3-carbaldehyde]
TGI [1]: 4.26E−8 Molar
GI50 [1]: < 0.01 µM
Percent Growth ([1]; Log10 Concentration −4.0 Molar): −71%
Percent Growth ([1]; Log10 Concentration −5.0 Molar): −18%
Percent Growth ([1]; Log10 Concentration −6.0 Molar): −71%
Percent Growth ([1]; Log10 Concentration −7.0 Molar): −25%
Percent Growth ([1]; Log10 Concentration −8.0 Molar): 43%
GI50 [2]: 1.74 µM
CC50 [2]: 14.8 µM
Percent Growth ([2]; Log10 Concentration −4.0 Molar): −67%
Percent Growth ([2]; Log10 Concentration −5.0 Molar): −47%
Percent Growth ([2]; Log10 Concentration −6.0 Molar): 87%
Percent Growth ([2]; Log10 Concentration −7.0 Molar): 97%
Percent Growth ([2]; Log10 Concentration −8.0 Molar): 100%
GI50 ([3]; SNB-75): 7.64 µM
CC50 [3]: 62.8 µM
TGI ([3]; SNB-75): 2.31E−5 Molar
Percent Growth [3, 14]: −73%
Percent Growth [3, 15]: 42%
Percent Growth [3, 16]: 112%
Percent Growth [3, 17]: 119%
Percent Growth [3, 18]: 118%
GI50 [4]: 5.17 µM
CC50 [4]: 82 µM
TGI [4]: 2.37E−5 Molar
Percent Growth ([4]; Log10 Concentration −4.0 Molar): −58%
Percent Growth ([4]; Log10 Concentration −5.0 Molar): 35%
Percent Growth ([4]; Log10 Concentration −6.0 Molar): 88%
Percent Growth ([4]; Log10 Concentration −7.0 Molar): 114%
Percent Growth ([4]; Log10 Concentration −8.0 Molar): 105%
GI50 ([5]; OVCAR-3): 0.569 µM
CC50 [5]: 69.1 µM
TGI ([5]; OVCAR-3): 1.03E−5 Molar
Percent Growth [5, 19]: −60%
Percent Growth [5, 20]: 1%
Percent Growth [5, 21]: 41%
Percent Growth [5, 22]: 77%
Percent Growth [5, 23]: 95%
GI50 ([6]; OVCAR-5): < 0.01 µM
CC50 [6]: > 100 µM
TGI ([6]; OVCAR-5): 3.72E−7 Molar
Percent Growth [6, 24]: −50%
Percent Growth [6, 25]: −23%
Percent Growth [6, 26]: −7%
Percent Growth [6, 27]: 10%
Percent Growth [6, 28]: 43%
TGI ([7]; DU-145): 2.78E−5 Molar
Percent Growth [7, 29]: −53%
Percent Growth [7, 30]: 42%
Percent Growth [7, 31]: 98%
Percent Growth [7, 32]: 108%
Percent Growth [7, 33]: 108%
GI50 ([7]; DU-145): 7.25 µM
CC50 [7]: 93.3 µM
serum ALT, AST, and creatinine levels [9]: within the normal range
histopathologic examination of organs [9]: no significant lesions
blood cell counts [9]: all in the normal ranges
body weights [9]: No difference
TGI [8]: 3.79E−5 Molar
GI50 ([8]; NCI-H460): 0.0888 µM
CC50 [8]: > 100 µM
Percent Growth ([8]; Log10 Concentration −4.0 Molar): −9%
Percent Growth ([8]; Log10 Concentration −5.0 Molar): 13%
Percent Growth ([8]; Log10 Concentration −6.0 Molar): 20%
Percent Growth ([8]; Log10 Concentration −7.0 Molar): 48%
Percent Growth ([8]; Log10 Concentration −8.0 Molar): 79%

O=Cc1cn(Cc2ccc(Cl)cc2)c2ccccc12 [Oncrasin K001, 1H-Indole-3-carboxaldehyde, 1-[(4-chlorophenyl)methyl]-(9CI)]
Akt level in H460 cells [10]: down regulation
levels of Bax, Bik, Bcl-2, Bcl-XL, Mst1, B-Raf, PKCzeta and PKCiota [11]: did not result in noticeable changes
susceptibility of stable PKCiota knockdown T29Kt1 cells ([12]; cell viability analysis): almost complete resistance
IC50 in PKCiota knockdown T29Kt1 cells relative to parental T29K cells ([12]; stable knockdown): 100 fold
serum ALT, AST, and creatinine levels [9]: within the normal range
histopathologic examination of organs [9]: no significant lesions
blood cell counts [9]: all in the normal ranges
body weights [9]: No difference

From US8883841B2, “Oncogenic ras-specific cytotoxic compound and methods of use thereof” (The Board of Regents of the University of Texas System, priority 2005, dated 2014)
